Where “and” joins values, the source holds several entries; their conditions need not be identical. Equal entries are not always repeated.
Legend:
[1] = target: T1, HSL (Rattus norvegicus, UniProt P15304); experiment: TAG assay ([3H]trioleoylglycerol cleavage); assay type: biochemical
T1 construct: The partially purified HSL can be stored at −70° C. for 4 to 6 weeks; from tissue; host or cells: rat epididymal fat cells (male Wistar rats)
T1 sequence (P15304 1-768 isoform P15304-2): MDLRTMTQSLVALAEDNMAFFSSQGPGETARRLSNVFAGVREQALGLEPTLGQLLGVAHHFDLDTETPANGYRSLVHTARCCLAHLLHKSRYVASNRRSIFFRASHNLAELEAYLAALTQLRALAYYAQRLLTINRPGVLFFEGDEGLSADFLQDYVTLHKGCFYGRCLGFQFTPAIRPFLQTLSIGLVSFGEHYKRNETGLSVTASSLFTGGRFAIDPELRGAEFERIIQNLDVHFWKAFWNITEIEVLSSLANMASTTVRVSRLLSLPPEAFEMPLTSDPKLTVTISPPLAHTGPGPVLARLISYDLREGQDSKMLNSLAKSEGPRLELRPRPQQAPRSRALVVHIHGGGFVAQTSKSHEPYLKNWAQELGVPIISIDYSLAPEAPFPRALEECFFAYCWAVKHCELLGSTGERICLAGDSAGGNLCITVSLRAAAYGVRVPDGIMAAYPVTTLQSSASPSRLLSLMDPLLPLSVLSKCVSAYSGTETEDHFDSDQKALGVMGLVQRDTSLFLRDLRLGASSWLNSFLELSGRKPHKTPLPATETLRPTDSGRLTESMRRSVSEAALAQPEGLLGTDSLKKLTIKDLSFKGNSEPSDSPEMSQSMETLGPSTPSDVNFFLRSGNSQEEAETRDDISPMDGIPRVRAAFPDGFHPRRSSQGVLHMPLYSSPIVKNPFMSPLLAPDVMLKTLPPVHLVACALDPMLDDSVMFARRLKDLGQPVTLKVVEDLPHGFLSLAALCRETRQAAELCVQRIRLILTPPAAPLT
Procedure: (§1) Isolated rat fat cells are obtained from epididymal fatty tissue from untreated male rats (Wistar, 220-250 g) by collagenase treatment according to published processes. The fat cells from 10 rats are washed three times by flotation with 50 ml each of homogenization buffer ([…], pH 7.4, 0.25 M sucrose, 1 mM ethylenediamine-N,N,N′,N′-tetraacetic acid (EDTA), 1 mM dithiothreitol (DTT), 10 μg/ml of leupeptin, 10 μg/ml of antipain, 20 μg/ml of pepstatin) and finally taken up in 10 ml of homogenization buffer. The fat cells are homogenized in a Teflon-in-glass homogenizer (Braun-Melsungen) by 10 strokes at 1500 rpm and 15° C. […]
For the preparation of the substrate, 25-50 μCi of [^3H]trioleoylglycerol (TAG)(in toluene), 6.8 μMol of unlabeled trioleoylglycerol, and 0.6 mg of phospholipids (phosphatidylcholine/phosphatidylinositol 3:1 w/v) are mixed, dried over N2, and then taken up in 2 ml of 0.1 M potassium dihydrogenphosphate/potassium phosphate buffer (KPi)(pH 7.0) by ultrasonic treatment (Branson 250, microtip, setting 1-2, 2×1 min at a 1 min interval). […] After phase separation, one equivalent of the upper phase (1 ml) is taken and the radioactivity is determined by liquid scintillation measurement.
Substances are customarily tested in four independent batches. […] The IC50 value is calculated by means of an inhibition curve using at least 10 concentrations of the test substance. […]

[2] = target: T1, HSL; experiment: PNPB assay; assay type: biochemical; conditions: Example 6, Table 6; n=5, mean±SD
Procedure: as §1, with “C. The homogenizate is centrifuged (Sorvall SM24 tubes, 5000 rpm, 10 min, 4° C.).” for “C.”
10 μl of p-nitrophenyl butyrate (PNPB)(2 mM in acetonitrile), 890 μl of 0.1 M KPi (pH 7.25), 0.9% NaCl, 1 mM DTT, and 100 μl of HSL (prepared as above, diluted in this buffer) are incubated at 37° C. for 10 min. […] An equivalent volume of the upper phase is then taken and the absorption is determined at 400 nm.
Substances are customarily tested in four independent batches. The inhibition of the enzymatic activity of the HSL by a test substance is determined by comparison with an uninhibited control reaction. The IC50 value is calculated by means of an inhibition curve using at least 10 concentrations of the test substance. […]

O=C(CCCCCCCCCCCNc1ccc([N+](=O)[O-])c2nonc12)OCC(O)CO (racemic) [Compound 3]
IC50 [1]: 15.3 µM and 17.3 µM | IC50 [2]: > 100 µM

— patent publication US6783949B1, “Processes for determining whether a test substance contains lipases or lipase inhibitors” (Aventis Pharma Deutschland GmbH, priority 1999, dated 2004)
